Values quoted from earlier work as cited in patent US9329191B2, “Reaction-based fluorescent probe for selective detection of carbon monoxide using metal-mediated carbonylation” (THE REGENTS OF THE UNIVERSITY OF CALIFORNIA, priority 2013, dated 2016).

Conditions: literature

SMILES: NCC(=O)O.[C-]#[O+].[C-]#[O+].[C-]#[O+].[Cl][Ru] [CORM-3, [Ru(CO)3Cl(glycinate)]]
- CORM-3 concentration shown to not alter cell viability: up to 500 μM
